From EP0300675A2, “Method for the improvement of cyclosporine therapy” (MERCK FROSST CANADA INC., priority 1987, dated 1989)

System: cyclosporine A-induced nephrotoxicity
Assay: cyclosporine A-induced nephrotoxicity (rise in serum BUN) in SHR rats dosed for 14 days
Type: in vivo, female spontaneously hypertensive (SHR) rats
Details: for Serum BUN ± S.E.M.: 14 days; for inhibition of the increase in serum BUN: 3 mg/kg/day in saline
Procedure: All experiments were carried out using female spontaneously hypertensive (SHR) rats, weight range 160-200 gm, obtained from Taconic Farms. […] Four thromboxane antagonists have been studied so far. […] Thromboxane antagonists have been administered as the sodium salt dissolved in saline, the sodium salt dissolved in 0.1% NaHCO₃ or the free acid suspended in 1% Methocel.

[1] = 3 mg/kg/day in saline with cyclosporine A 25 mg/kg/day, Combined experiments
[2] = 3 mg/kg/day in saline with cyclosporine A 25 mg/kg/day, Experiment 1
[3] = second experiment combined together

Q: How did the “Serum BUN ± S.E.M.” value [1] turn out when `O=C(O)CC1CCCc2c1n(Cc1ccc(Cl)cc1)c1ccc(F)cc21` (racemic) [Compound 2, 9-(p-Chlorobenzyl)-6-fluoro-1,2,3,4-tetrahydrocarbazol-1-yl acetic acid] was run?
A: 30.3 ± 2.0 mg/100 ml

Q: And the “Serum BUN ± S.E.M.” value [2]?
A: 24.6 ± 1.7 mg/100 ml

Q: And the “inhibition of the increase in serum BUN” value (one experiment (Table 2))?
A: significant inhibition

Q: And the “inhibition of the increase in serum BUN” value [3]?
A: no significant inhibition

Q: `O=C(O)CC1CCCc2c1n(Cc1ccc(Cl)cc1)c1c(F)cc(F)cc21` (single isomer, unassigned; (-)) [Compound 3, (-)-9-(p-Chlorobenzyl)-6,8-difluoro-1,2,3,4-tetrahydrocarbazol-1-yl acetic acid] was tested. Which “Serum BUN ± S.E.M.” value (3 mg/kg/day, suspension of free acid in 1% Methocel, with cyclosporine A 25 mg/kg/day, Table 4 (two separate experiments)) did it give?
A: 23.2 ± 0.9 mg/100 ml

Q: What about the “Serum BUN ± S.E.M.” value (10 mg/kg/day, suspension of free acid in 1% Methocel, with cyclosporine A 25 mg/kg/day, Table 4 (two separate experiments)) of the same compound?
A: 24.0 ± 1.1 mg/100 ml

Q: And the “inhibition of the rise in serum BUN” value (both doses (3 and 10 mg/kg/day), suspension of the free acid, two separate experiments)?
A: significant inhibition

Q: With `CS(=O)(=O)c1ccc(Cn2c3c(c4cc(F)cc(F)c42)CCCC3CC(=O)O)cc1` (single isomer, unassigned; (-)) [Compound 4, (-)-9-(p-Methylsulfonylbenzyl)-6,8-difluoro-1,2,3,4-tetrahydrocarbazol-1-yl acetic acid] as the compound, how does the “Serum BUN ± S.E.M.” value (3 mg/kg/day, suspension of free acid in 1% Methocel, with cyclosporine A 25 mg/kg/day, Table 5) read?
A: 23.5 ± 1.0 mg/100 ml

Q: What about the “Serum BUN ± S.E.M.” value (10 mg/kg/day, suspension of free acid in 1% Methocel, with cyclosporine A 25 mg/kg/day, Table 5) of the same compound?
A: 21.9 ± 0.8 mg/100 ml

Q: What about the “effect on cyclosporine A-induced rises in serum BUN” value (both 3 and 10 mg/kg/day, suspension of the free acid) of the same compound?
A: effective

Q: `Cc1c(CC(C)(C)C(=O)O)n(Cc2ccc(Cl)cc2)c2ccc(F)cc12` [Compound 1, 3-(1-(4-Chlorobenzyl)-3-methyl-5-fluoroindol-2 yl)-2,2-dimethyl propanoic acid] was tested. Which “inhibition of the increase in serum BUN induced by cyclosporine A” value (3 mg/kg/day in 0.1% NaHCO₃) did it give?
A: No significant inhibition

Q: What about the “Serum BUN ± S.E.M.” value (3 mg/kg/day in 0.1% NaHCO₃ with cyclosporine A 25 mg/kg/day) of the same compound?
A: 28.3 ± 2.2 mg/100ml

Q: And the “Serum BUN ± S.E.M.” value [1]?
A: 28.0 ± 1.6 mg/100 ml

Q: What about the “Serum BUN ± S.E.M.” value [2] of the same compound?
A: 24.5 ± 1.1 mg/100 ml

Q: And the “inhibition of the increase in serum BUN” value (one experiment (Table 2))?
A: significant inhibition

Q: And the “inhibition of the increase in serum BUN” value [3]?
A: no significant inhibition

Q: And the “Serum BUN ± S.E.M.” value (10 mg/kg/day in 0.1% NaHCO₃ with cyclosporine A 25 mg/kg/day, 2 separate experiments)?
A: 23.4 ± 0.9 mg/100ml

Q: And the “inhibition of the increase in serum BUN induced by cyclosporine A” value (10 mg/kg/day in 0.1% NaHCO₃, mean of two separate experiments, p < 0.05)?
A: significant inhibition
